Test results reported in patent publication US10975119B2, “Selective cysteine protease inhibitors and uses thereof” (Genesis Technologies Limited, priority 2011, dated 2021).
“And” between values parts separate entries of the source, which are not always exact repeats. Identical values can stand only once. Counter-ions that a name gives are not always drawn. Like-named read-outs stand apart in the source and are kept apart here.

Legend:
Format in all cases: biochemical
Caspase-8 = biological target: T1, Caspase-8 (Homo sapiens, UniProt Q14790); assay: Caspase-8 inhibitor screening assay (BioVision kit, IETD-AFC); settings: for inhibition at 10 µM: read-out: % Inhibition at 10 uM Casp8; for inhibition at 100 µM: read-out: % Inhibition at 100 uM Casp8
T1 construct: mixing the compounds with the respective active caspases; purchased BioVision K158-100
Description: (§1) The efficacy of an array of compounds as an inhibitor of the activity of Caspases 1 through 10 were assessed by using the respective Caspase Inhibitor Drug Screening Kits (Caspase-1 Catalog #: K151-100, Caspase-2 Catalog #: K152-100, Caspase-3 Catalog #: K153-100, Caspase-4 Catalog #: K154-100, Caspase-5 Catalog #: K155-100, Caspase-6 Catalog #: K156-100, Caspase-7 Catalog #: K157-100, Caspase-8 Catalog #: K158-100, Caspase-9 Catalog #: K159-100, Caspase-10 Catalog #: K160-100, BioVision) following the instructions of the manufacturer. […] Active caspases cleaved their respective synthetic substrates to release free AFC, which was then quantified by fluorometry.
(§2) Briefly, the compounds were first tested at 2 concentrations (10 uM and 100 uM final) to determine if there is a hit. […] Each condition was tested in duplicates. […] For some samples, a smaller range of concentrations was tested depending on the % Inhibition results at 10 uM and 100 uM. Results were summarized in Tables 2, 3, and 4 herein after. Table 2 represents the IC50 values (uM) of the test compounds as inhibitors of the activity of the various caspases.
(§3) (*) RFU (no inhibitor control)—RFU (compound at a specific concentration)
(§4) RFU (no inhibitor control)

Caspases 1 through 10 = assay: Caspase-1 to Caspase-10 inhibitor screening, profile across the panel
Description: as §1, §2, §3, §4

Caspase-3 = biological target: T2, Caspase-3 (Homo sapiens, UniProt P42574); assay: Caspase-3 inhibitor screening assay (BioVision kit, DEVD-AFC); settings: for inhibition at 10 µM: read-out: % Inhibition at 10 uM Casp3; for inhibition at 100 µM: read-out: % Inhibition at 100 uM Casp3
T2 construct: mixing the compounds with the respective active caspases; purchased BioVision K153-100
T2 sequence (P42574 29-175 limits assumed): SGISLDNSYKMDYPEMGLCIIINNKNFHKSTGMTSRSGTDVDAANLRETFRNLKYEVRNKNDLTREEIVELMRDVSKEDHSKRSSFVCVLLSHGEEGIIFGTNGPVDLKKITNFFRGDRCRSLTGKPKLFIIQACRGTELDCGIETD
T2 sequence (P42574 176-277 limits assumed): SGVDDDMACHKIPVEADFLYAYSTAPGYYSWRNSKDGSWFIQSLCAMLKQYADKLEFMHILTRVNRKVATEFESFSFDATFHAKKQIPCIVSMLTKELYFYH
Description: as §1, §2, §3, §4

Caspase-4 = biological target: T3, Caspase-4 (Homo sapiens, UniProt P49662); assay: Caspase-4 inhibitor screening assay (BioVision kit, LEVD-AFC); settings: for inhibition at 10 µM: read-out: % Inhibition at 10 uM Casp4; for inhibition at 100 µM: read-out: % Inhibition at 100 uM Casp4
T3 construct: mixing the compounds with the respective active caspases; purchased BioVision K154-100
T3 sequence (P49662 81-270 limits assumed): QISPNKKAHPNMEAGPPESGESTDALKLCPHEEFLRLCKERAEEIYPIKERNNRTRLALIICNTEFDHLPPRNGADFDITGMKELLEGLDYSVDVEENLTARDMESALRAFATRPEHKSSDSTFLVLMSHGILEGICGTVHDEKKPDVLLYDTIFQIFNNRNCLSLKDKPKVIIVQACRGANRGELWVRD
T3 sequence (P49662 290-377 limits assumed): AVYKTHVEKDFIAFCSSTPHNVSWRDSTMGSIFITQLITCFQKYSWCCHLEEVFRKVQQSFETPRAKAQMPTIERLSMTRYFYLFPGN
Description: as §1, §2, §3, §4

Caspase-2 = biological target: T4, Caspase-2 (Homo sapiens, UniProt P42575); assay: Caspase-2 inhibitor screening assay (BioVision kit, VDVAD-AFC); settings: for inhibition at 10 µM: read-out: % Inhibition at 10 uM Casp2; for inhibition at 100 µM: read-out: % Inhibition at 100 uM Casp2; for IC50: read-out: IC50 Casp2
T4 construct: mixing the compounds with the respective active caspases; purchased BioVision K152-100
T4 sequence (P42575 170-325 limits assumed): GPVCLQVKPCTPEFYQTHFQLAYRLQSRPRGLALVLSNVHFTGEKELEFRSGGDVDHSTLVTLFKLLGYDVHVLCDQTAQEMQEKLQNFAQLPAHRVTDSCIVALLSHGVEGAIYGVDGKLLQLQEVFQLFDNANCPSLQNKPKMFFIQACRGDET
T4 sequence (P42575 334-452 limits assumed): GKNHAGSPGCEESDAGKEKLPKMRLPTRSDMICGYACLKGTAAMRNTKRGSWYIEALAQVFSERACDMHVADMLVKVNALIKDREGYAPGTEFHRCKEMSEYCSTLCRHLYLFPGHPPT
Description: as §1, §2, §3, §4

[1] = read-out: potency (IC50) against caspase-3

T1 sequence (Q14790 217-374 limits assumed): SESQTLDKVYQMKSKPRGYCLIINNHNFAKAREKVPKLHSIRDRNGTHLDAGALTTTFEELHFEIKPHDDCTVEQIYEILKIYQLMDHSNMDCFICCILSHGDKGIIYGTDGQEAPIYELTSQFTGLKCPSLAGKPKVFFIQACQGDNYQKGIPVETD
T1 sequence (Q14790 385-479 limits assumed): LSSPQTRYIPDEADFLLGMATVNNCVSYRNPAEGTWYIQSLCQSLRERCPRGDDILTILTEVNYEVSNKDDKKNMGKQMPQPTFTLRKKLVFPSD

Row | Structure (SMILES) | inhibition at 10 µM (Caspase-8) | inhibition at 100 µM (Caspase-8) | IC50 (Caspase-8; read-out: IC50 Casp8) | inhibition profile across caspases, in words (Caspases 1 through 10) | inhibition at 10 µM (Caspase-3) | inhibition at 100 µM (Caspase-3) | IC50 (Caspase-3; read-out: IC50 Casp3) | inhibition at 10 µM (Caspase-4) | inhibition at 100 µM (Caspase-4) | IC50 (Caspase-4; read-out: IC50 Casp4) | IC50 (Caspase-4; read-out: potency (IC50) against caspase-4) | inhibition at 10 µM (Caspase-2) | inhibition at 100 µM (Caspase-2) | IC50 (Caspase-2) | IC50 (Caspase-3; [1]) | potency against caspase-3 relative to compound 26, in words (Caspase-3; replacement of Pro at P2 of compound 26) | IC50 (Caspase-8; read-out: potency (IC50) against caspase-8)
1 | CC(C)(C)[C@H](NC(=O)c1ccc(N)c(Cl)c1)C(=O)N1CCCC1C(=O)N[C@H](/C=C/S(C)(=O)=O)CC(=O)O (stereo in doubt) [Compound 14, 4-amino-3-chlorobenzene carbonyl-t-Leu-Pro-Asp methyl vinyl sulfone] | 46% | 95% | 12.8 µM and 12.9 µM | very strong inhibitory activity towards pro-inflammatory Caspases | 7% | 18% | > 100 µM | 100% | 100% | 0.09 µM | 0.087 µM | 1% | 10% | > 100 µM | – | – | –
2 | CC(C)(C)[C@H](NC(=O)[C@H](CC(=O)O)NC(=O)OCc1ccccc1)C(=O)N1CCCC1C(=O)N[C@H](/C=C/S(C)(=O)=O)CC(=O)O (stereo in doubt) [Compound 26, Z-Asp-t-Leu-Pro-Asp-methyl vinyl sulfone] | 82% | 99% | 2.23 µM | high inhibitory activity towards the effector (executioner) Caspases: Caspase-3 and -7 | 98% | 100% | 0.12 µM | 88% | 100% | 3.27 µM | – | 70% | 96% | 4.36 µM | 0.123 µM | – | –
3 | CS(=O)(=O)/C=C/[C@H](CC(=O)O)NC(=O)[C@H]1CCCN1C(=O)[C@@H](NC(=O)[C@H](CC(=O)O)NC(=O)OCc1ccccc1)c1ccccc1 [Compound 30, Z-Asp-Phenylglycine-Pro-Asp-methyl vinyl sulfone] | 22% | 79% | 32.5 µM | – | 68% | 95% | 3.4 µM | 50% | 100% | 9.94 µM | – | 11% | 66% | 53.7 µM | 3.41 µM | – | –
4 | CC(C)(C)[C@@H](NC(=O)[C@H](CC(=O)O)NC(=O)OCc1ccccc1)C(=O)N1CC[C@@H]1C(=O)N[C@H](/C=C/S(C)(=O)=O)CC(=O)O [Compound 32, Z-Asp-t-Leu-(Azetidine-2-carbonyl)-Asp-methyl vinyl sulfone] | 69% | 98% | 4.08 µM | – | 96% | 100% | 0.28 µM | 76% | 100% | 5.63 µM | – | 43% | 86% | 13.1 µM | – | did not affect the potency against caspase-3 | –
5 | CC(C)[C@H](NC(=O)[C@H](Cc1cn(C)c2ccccc12)NC(=O)[C@H](CC(=O)O)NC(=O)OCc1ccccc1)C(=O)N[C@H](/C=C/S(C)(=O)=O)CC(=O)O [Compound 36, Z-Asp-Trp(N-Me)-Val-Asp-methyl vinyl sulfone] | 0% | 33% | > 100 µM | – | 98% | 100% | 0.09 µM | 57% | 99% | 9.02 µM | – | 0% | 19% | > 100 µM | – | – | –
6 | CCC(C)[C@H](NC(=O)[C@H](CCC(=O)O)NC(=O)[C@@H](NC(=O)OCc1ccccc1)C(C)C)C(=O)N[C@H](/C=C/S(C)(=O)=O)CC(=O)O (stereo partly drawn) [Compound 38, Z-Val-Glu-Ile-Asp-methyl vinyl sulfone] | 97% | 100% | 0.66 µM | – | 63% | 89% | 6.96 µM | 100% | 100% | 0.375 µM | – | 2% | 4% | – | – | – | –
7 | CC(C)[C@H](NC(=O)[C@H](CCC(=O)O)NC(=O)[C@H](Cc1c[nH]c2ccccc12)NC(=O)OCc1ccccc1)C(=O)N[C@H](/C=C/S(C)(=O)=O)CC(=O)O [Compound 40, Z-Trp-Glu-Val-Asp-methyl vinyl sulfone] | 61% | 96% | 5.93 µM | – | 63% | 94% | 6.55 µM | 100% | 100% | 0.18 µM | – | 1% | 10% | > 100 µM | – | – | –
8 | CC(C)[C@H](NC(=O)[C@@H](N)Cc1ccc(O)cc1)C(=O)N[C@@H](C)C(=O)N[C@H](/C=C/S(C)(=O)=O)CC(=O)O [Compound 42, Tyr-Val-Ala-Asp methyl vinyl sulfone] | 12% | 30% | > 100 µM | – | 0% | 0% | > 100 µM | 28% | 100% | 17.1 µM | – | 0% | 0% | > 100 µM | – | – | –
9 | CCOC(=O)/C=C/[C@@H](N)CC(=O)O [Compound 44, Asp ethyl vinyl ester tosyl salt] | 0% | 7% | > 100 µM | – | 0% | 0% | > 100 µM | 0% | 0% | > 100 µM | – | 0% | 3% | > 100 µM | – | – | –
10 | CC(C)[C@H](NC(=O)[C@@H](NC(=O)[C@H](CC(=O)O)NC(=O)OCc1ccccc1)c1ccccc1)C(=O)N[C@H](/C=C/S(C)(=O)=O)CCC(=O)O [Compound 84, Z-Asp-Phg-Val-Glu methyl vinyl sulfone] | 9% | 10% | > 100 µM | – | 39% | 88% | 15.2 µM | 0% | 0% | > 100 µM | – | 0% | 3% | > 100 µM | – | – | –
11 | CCOC(=O)/C=C/[C@H](CC(=O)O)NC(=O)[C@@H](NC(=O)[C@H](CCC(=O)O)NC(=O)[C@@H](NC(=O)OCc1ccccc1)C(C)C)c1ccccc1 [Compound 126, Z-Val-Glu-Phg-Asp-Ethyl Vinyl ester] | – | – | 0.08 µM | – | – | – | 2.78 µM | – | – | 0.77 µM | – | – | – | > 100 µM | – | – | 0.079 µM
